This is an account of results in patent publication US20170273307A1, “SILANE-BASED ANTIMICROBIAL COATINGS AND METHODS OF MAKING AND USING THE SAME” (Trent University, priority 2016, published 2017).

A short description of this data set: Hydrolysis study of the silane by 1H NMR in D2O. It counts as physicochemical. Here is the method:
Hydrolysis of the antimicrobial silanes to activate their surface bonding, an essential step in the coating process, were examined by ^1H NMR in D2O. In a typical experiment, approximately 10 mg of the trimethoxy-hydantoin containing silane was added to D2O and the first was acquired within 2 minutes of the addition. The evolution of methanol with time was measured by acquisition of subsequent incremental spectra on the same sample. Due to the limited solubility of these compounds in water, the amount of methanol hydrolysis product detected, in relation to an internal standard (residual H2O in D2O) was used.
Hydrolysis of the modified alkyloxysilanes is important for their reactivity and adhesion to surfaces. Knowing the rate of hydrolysis allows control over the mixing time and catalyst/acid content required before a coating will optimally bind to a substrate. To better understand the mechanisms of hydrolysis, a simple method of placing the silane in a solvent, such as D2O (deuterated water), and look for a characteristic methanol peak in NMR analysis, which will occur when the methanol is cleaved off by the hydrolysis from the D2O. […] After 2 minutes (the fastest the sample could be analyzed on NMR after mixing), a sharp, distinct methanol peak appears at 3.34 ppm (FIG. 4).

Take `CO[Si](CCCn1cc(CN2C(=O)NC(C)(C)C2=O)nn1)(OC)OC` [the silane]: where the note is “approximately 10 mg in D2O”, the “solubility in D2O” value is listed as “not completely soluble”. The “integration value of methanol peak (3.34 ppm) compared with D2O set as 1” value (in D2O, after 2 minutes) was 0.24. Besides, the “time to plateau of methanol peak integration” value (in D2O, spectra recorded every 2 minutes) stood at 10 min. Further, the “time to nearly complete hydrolysis” value (in D2O, uncatalysed, methanol release by 1H NMR) is “less than 2 minutes”.
